{"source": "paper PMC12018195", "about": "“A conserved phosphorylation mechanism for regulating the interaction between the CMG replicative helicase and its forked DNA substrate” (The Journal of Biological Chemistry, 2025)", "experiment_in_all_cases": "radiometric kinase assay, SDS-PAGE", "type_in_all_cases": "biochemical", "key": {"mouse (Mm) Chk2": {"target": "T1, mouse (Mm) Chk2 (Mus musculus, UniProt Q9Z265)", "T1 construct": "gene Chek2", "T1 sequence (Q9Z265 whole entry)": "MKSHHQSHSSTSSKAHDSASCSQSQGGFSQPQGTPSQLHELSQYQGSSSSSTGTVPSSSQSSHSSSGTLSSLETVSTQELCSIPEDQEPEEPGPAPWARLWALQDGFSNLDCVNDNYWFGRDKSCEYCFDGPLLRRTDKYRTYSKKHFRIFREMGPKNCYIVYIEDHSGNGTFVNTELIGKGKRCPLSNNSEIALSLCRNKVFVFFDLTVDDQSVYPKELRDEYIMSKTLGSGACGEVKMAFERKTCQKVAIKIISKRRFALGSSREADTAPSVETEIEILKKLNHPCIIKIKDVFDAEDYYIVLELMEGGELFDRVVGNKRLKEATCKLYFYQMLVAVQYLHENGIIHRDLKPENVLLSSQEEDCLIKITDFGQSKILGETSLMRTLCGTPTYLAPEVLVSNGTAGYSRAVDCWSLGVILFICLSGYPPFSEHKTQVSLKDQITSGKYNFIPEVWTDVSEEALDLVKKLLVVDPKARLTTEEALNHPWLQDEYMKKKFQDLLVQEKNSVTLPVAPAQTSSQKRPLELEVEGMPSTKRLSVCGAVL", "settings": "phosphate donor, 300 μM ATP spiked with labelled compound; acceptor histone H1 / Cdc25 peptide; 10 mM Mg acetate, pH 7.6, 30 °C"}, "Drosophila (Dm) Chk1": {"target": "T2, Drosophila (Dm) Chk1 (Drosophila melanogaster, UniProt O61661)", "T2 construct": "gene grp", "T2 sequence (O61661 1-512)": "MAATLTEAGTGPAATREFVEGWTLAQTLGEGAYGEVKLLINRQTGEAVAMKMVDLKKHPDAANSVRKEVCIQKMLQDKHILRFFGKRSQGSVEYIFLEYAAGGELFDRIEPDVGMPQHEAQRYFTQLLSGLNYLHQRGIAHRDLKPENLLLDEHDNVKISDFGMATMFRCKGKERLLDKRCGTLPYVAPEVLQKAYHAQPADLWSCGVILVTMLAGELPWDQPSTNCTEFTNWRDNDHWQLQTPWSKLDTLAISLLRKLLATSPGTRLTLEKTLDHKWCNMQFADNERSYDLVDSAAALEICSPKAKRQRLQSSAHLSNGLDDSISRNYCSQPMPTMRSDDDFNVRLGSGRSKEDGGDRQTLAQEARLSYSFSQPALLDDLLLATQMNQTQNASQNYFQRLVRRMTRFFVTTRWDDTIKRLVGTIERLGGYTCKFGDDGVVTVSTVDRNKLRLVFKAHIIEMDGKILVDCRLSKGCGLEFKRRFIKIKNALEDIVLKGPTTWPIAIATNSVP", "settings": "phosphate donor, 300 μM ATP spiked with labelled compound; acceptor MCM2-7 / CMG / histone H1; 10 mM Mg acetate, pH 7.6, 30 °C"}, "human (Hs) Chk2": {"target": "T3, human (Hs) Chk2 (Homo sapiens, UniProt O96017)", "T3 construct": "gene CHEK2", "T3 sequence (O96017 whole entry)": "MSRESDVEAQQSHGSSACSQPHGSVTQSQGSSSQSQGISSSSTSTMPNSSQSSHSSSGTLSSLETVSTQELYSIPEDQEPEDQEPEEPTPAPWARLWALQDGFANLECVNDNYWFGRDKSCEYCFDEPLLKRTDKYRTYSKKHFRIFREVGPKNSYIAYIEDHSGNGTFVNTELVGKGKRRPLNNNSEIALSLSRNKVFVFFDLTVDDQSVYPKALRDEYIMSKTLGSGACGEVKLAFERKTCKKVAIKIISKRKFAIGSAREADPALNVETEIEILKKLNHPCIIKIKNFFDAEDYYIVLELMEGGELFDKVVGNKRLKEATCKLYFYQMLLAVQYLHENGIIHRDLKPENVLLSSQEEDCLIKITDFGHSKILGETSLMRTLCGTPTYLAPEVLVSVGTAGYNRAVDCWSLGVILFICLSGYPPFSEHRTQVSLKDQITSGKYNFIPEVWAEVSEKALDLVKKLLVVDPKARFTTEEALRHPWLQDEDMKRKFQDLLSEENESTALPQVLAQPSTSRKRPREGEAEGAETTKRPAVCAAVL", "settings": "phosphate donor, 300 μM ATP spiked with labelled compound; acceptor histone H1 / Cdc25 peptide; 10 mM Mg acetate, pH 7.6, 30 °C"}, "human (Hs) Chk1": {"target": "T4, human (Hs) Chk1 (Homo sapiens, UniProt O14757)", "T4 construct": "gene CHEK1", "T4 sequence (O14757 1-476)": "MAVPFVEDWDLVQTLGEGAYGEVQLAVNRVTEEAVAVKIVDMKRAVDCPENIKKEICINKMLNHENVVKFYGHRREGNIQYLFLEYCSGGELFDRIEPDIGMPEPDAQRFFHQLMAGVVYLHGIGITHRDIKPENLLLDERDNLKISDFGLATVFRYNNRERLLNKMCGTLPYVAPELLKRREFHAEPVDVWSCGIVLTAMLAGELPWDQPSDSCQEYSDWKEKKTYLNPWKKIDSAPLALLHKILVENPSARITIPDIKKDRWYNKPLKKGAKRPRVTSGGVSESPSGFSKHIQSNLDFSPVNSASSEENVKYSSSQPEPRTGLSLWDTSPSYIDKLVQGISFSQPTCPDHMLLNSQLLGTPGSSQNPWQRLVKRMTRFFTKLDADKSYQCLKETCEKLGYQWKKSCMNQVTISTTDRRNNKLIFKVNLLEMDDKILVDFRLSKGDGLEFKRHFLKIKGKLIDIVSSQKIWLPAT", "settings": "phosphate donor, 300 μM ATP spiked with labelled compound; acceptor MCM2-7 / CMG / histone H1; 10 mM Mg acetate, pH 7.6, 30 °C"}}, "data": [{"smiles": "Nc1ncnc2c1ncn2[C@@H]1O[C@H](COP(=O)(O)OP(=O)(O)OP(=O)(O)O)[C@@H](O)[C@H]1O", "note": "[ATP]", "values": [{"measurement": "radiometric kinase assay, SDS-PAGE", "setting": "mouse (Mm) Chk2", "result": "human and mouse Chk2 were able to efficiently phosphorylate Cdc25 and histone H1 control substrates"}, {"measurement": "radiometric kinase assay, SDS-PAGE", "setting": "Drosophila (Dm) Chk1", "result": "Drosophila Chk1 phosphorylated, on average, close to one residue per MCM2-7 complex"}, {"measurement": "radiometric kinase assay, SDS-PAGE", "setting": "human (Hs) Chk2", "result": "human and mouse Chk2 were able to efficiently phosphorylate Cdc25 and histone H1 control substrates"}, {"measurement": "radiometric kinase assay, SDS-PAGE", "setting": "human (Hs) Chk1", "result": "The Chk1 proteins from Drosophila and humans phosphorylated MCM2-7 with similar efficiency"}]}]}
